In patent US7968526B2, “Antisense oligonucleotides directed to ribonucleotide reductase R2 and uses thereof in the treatment of cancer” (Lorus Therapeutics Inc., priority 2003, dated 2011):

Tests used:
[1] = tested on: C8161 human metastatic melanoma cells; experiment: Experimental metastasis assay, C8161 cells, treatment post tumour cell injection; assay type: in vivo, human cells in mice; conditions: C8161 cells i.v. into SCID mice; treatment initiated after 2 days; lungs 5-7 weeks later
Description: C8161 human melanoma cells were seeded into 100 mm tissue culture dishes at a density of 2×10^6 and incubated overnight at 37° C. in α-MEM medium supplemented with 10% FBS. The cells were trypsinized, collected by centrifugation and aliquots were removed from the suspension to determine the cell viability using trypan blue exclusion test. […] Treatment was initiated after 2 days. Estimates of the number of lung nodules were made 5-7 weeks later, after excised lungs from individual mice were stained with picric acid dye solution (75% picric acid, 20% formaldehyde, 5% glacial acetic acid).
Murine R3 fibrosarcoma and human C8161 melanoma cells injected into the tail vein of mice form observable lung nodules 2 weeks post-injection. […] To more accurately reflect the clinical situation, mice were treated with SEQ ID NO:1 post tumour cell injection. C8161 human metastatic melanoma cells were seeded into 100 mm tissue culture dishes at a density of 2×10^6 and incubated overnight at 37° C. in α-MEM medium supplemented with 10% FBS. The cells were trypsinized, collected by centrifugation and aliquots were removed from the suspension to determine the cell viability using trypan blue exclusion test. Approximately 1×10^5 cells suspended in 0.1 ml of PBS were injected into the tail veins of 6-8 week old female SCID mice. Treatment was initiated after 2 days. Estimates of the number of lung nodules were made 5-7 weeks later, after excised lungs from individual mice were stained with picric acid dye solution (75% picric acid, 20% formaldehyde, 5% glacial acetic acid). The results are shown in FIG. 31, bars represent the mean number of nodules per mouse with standard error.

[2] = tested on: human Burkitt's lymphoma (Raji) cells; experiment: Survival of SCID mice bearing human Burkitt's lymphoma (Raji); assay type: in vivo, human cells in mice; conditions: 10 mg/kg i.v. every second day
Description: Mice with established human Burkitt's lymphoma tumours were treated every second day with either saline or SEQ ID NO:1 for 44 days as described above. The control group mice all died from disease progression by day 20. At day 44, the SEQ ID NO:1 mice continued treatment on a weekly basis until stopping the treatment at day 73.
As an additional test of efficacy SEQ ID NO:1 was administered to SCID mice bearing active Burkitt's lymphoma (FIG. 30). Viable human Burkitt's lymphoma (Raji) cells (5×10^6) collected from subconfluent logarithmically growing cultures were injected i.v. into each animal and disease was allowed to establish for 2 days. SEQ ID NO:1, SEQ ID NO:3 and SEQ ID NO:2, in normal saline were administered by tail vein injection every second day at a dose of 10 mg/kg. At day 40 the treatment schedule was reduced to 10 mg/kg every 3 days. Control animals received saline alone, without oligonucleotide. Survival is presented as a percentage of the starting number of mice over time.

[3] = tested on: MDA-CDDP-S4 human in vivo-selected Cisplatin-resistant breast adenocarcinoma cells; experiment: MDA-CDDP-S4 Cisplatin-resistant breast adenocarcinoma, fat pad, SCID mice (2.3); design: species or system human cells in mice
Description: (§1) BxPC-3 is a gemcitabine resistant call line. […] Gemcitabine was administered intravenously every three days at a dose of 100 mg/kg. Antitumour activities were estimated by the inhibition of tumour volume, which was measured with caliper. Each point represents mean tumour volume calculated from 10 animals per experimental group. […] Hela S3 is a hydroxyurea resistant cell line. […] Hydroxyurea was administered intraperitoneally every day at a dose of 250 mg/kg for 10 days. Cisplatin was administered intravenously once a week for three weeks at a dose of 4 mg/kg. Antitumour activities were estimated by the inhibition of tumour volume, which was measured with caliper. Each point represents mean tumour volume calculated from 10 animals per experimental group. […] Cisplatin was administered intravenously once a week for three weeks at a dose of 4 mg/kg. Taxol was administered intravenously once a week for three weeks at a dose of 10 mg/kg. Antitumour activities were estimated by the inhibition of tumour volume, which was measured with caliper. Each point represents mean tumour volume calculated from 10 animals per experimental group. […] Taxol was administered i.p. once a week at a dose of 10 mg/kg. Antitumour activities were estimated by the inhibition of tumour volume (FIG. 12A), which was measured with calipers. Each point represents mean tumour volume calculated from 10 animals per experimental group. Animals were sacrificed and tumour weights taken at the end of the study (FIG. 12C). […] Cisplatin was administered intravenously once a week for four weeks at a dose of 4 mg/kg. Taxol was administered intravenously once a week for four weeks at a dose of 20 mg/kg. Antitumour activities were estimated by the inhibition of tumour volume, which was measured with caliper. Each point represents mean tumour volume calculated from 9-10 animals per experimental group. […] Cisplatin was administered intravenously once a week for four weeks at a dose of 4 mg/kg. Antitumour activities were estimated by the inhibition of tumour volume, which was measured with caliper. Each point represents mean tumour volume calculated from 10 animals per experimental group. At the end of the study the animals were sacrificed and tumours weighed. […] Taxol was administered i.p. once a week at a dose of 10 mg/kg. Anti-tumour activity was estimated by the inhibition of tumour volume, which was measured with caliper. Each point represents mean tumour volume calculated from 10 animals per experimental group. In addition animals were sacrificed and tumour weights taken at the end of the study. […] CPT-11 was administered i.p. for 5 days at a dose of 20 mg/kg/day. Antitumour activities were estimated by the inhibition of tumour volume, which was measured with caliper. Each point represents mean tumour volume calculated from 10 animals per experimental group. Tumour weights were measured after animals were sacrificed at the end of the treatment. These cells are not resistant to CPT-11 which was used as a positive control.

[4] = tested on: MDA-MB435-To.1 human Taxol-resistant breast adenocarcinoma cells; experiment: MDA-MB435-To.1 Taxol-resistant breast adenocarcinoma, fat pad, SCID mice (2.5); assay type: in vivo, human cells in mice; conditions: MDA-MB435-To.1 (breast), Taxol resistant, SCID; SEQ ID NO:1 10 mg/kg i.v. every other day 15 times; Taxol 20 mg/kg, Cisplatin 4 mg/kg i.v. weekly x4
Description: as §1

[5] = tested on: Hela S3 human cervix epitheloid carcinoma cells; experiment: Hela S3 hydroxyurea resistant cervix carcinoma xenograft in SCID mice; assay type: in vivo, human cells in mice; conditions: Hela S3 (cervix), hydroxyurea resistant, SCID; SEQ ID NO:1 10 mg/kg i.v. every other day 6 times; Hydroxyurea 250 mg/kg i.p. daily 10 days; Cisplatin 4 mg/kg i.v. weekly x3
Description: as §1, with “12C). […] The effects of combined treatment were greater than either treatment alone.” for “12C).”

[6] = tested on: MDA-MB435-To.1 human Taxol-resistant breast adenocarcinoma cells; experiment: MDA-MB435-To.1 Taxol-resistant breast adenocarcinoma, fat pad, CB-17 SCID mice, combination with Cisplatin (2.6); assay type: in vivo, human cells in mice; conditions: MDA-MB435-To.1 (breast), Taxol resistant, CB-17/SCID; SEQ ID NO:1 10 mg/kg i.v. every other day; Cisplatin 4 mg/kg i.v. weekly x4
Description: BxPC-3 is a gemcitabine resistant call line. […] Gemcitabine was administered intravenously every three days at a dose of 100 mg/kg. Antitumour activities were estimated by the inhibition of tumour volume, which was measured with caliper. Each point represents mean tumour volume calculated from 10 animals per experimental group. […] Hela S3 is a hydroxyurea resistant cell line. […] Hydroxyurea was administered intraperitoneally every day at a dose of 250 mg/kg for 10 days. Cisplatin was administered intravenously once a week for three weeks at a dose of 4 mg/kg. Antitumour activities were estimated by the inhibition of tumour volume, which was measured with caliper. Each point represents mean tumour volume calculated from 10 animals per experimental group. […] Cisplatin was administered intravenously once a week for three weeks at a dose of 4 mg/kg. Taxol was administered intravenously once a week for three weeks at a dose of 10 mg/kg. Antitumour activities were estimated by the inhibition of tumour volume, which was measured with caliper. Each point represents mean tumour volume calculated from 10 animals per experimental group. […] Taxol was administered i.p. once a week at a dose of 10 mg/kg. Antitumour activities were estimated by the inhibition of tumour volume (FIG. 12A), which was measured with calipers. Each point represents mean tumour volume calculated from 10 animals per experimental group. […] Antitumour activities were estimated by the inhibition of tumour volume, which was measured with caliper. Each point represents mean tumour volume calculated from 9-10 animals per experimental group. […] Antitumour activities were estimated by the inhibition of tumour volume, which was measured with caliper. Each point represents mean tumour volume calculated from 10 animals per experimental group. […] Anti-tumour activity was estimated by the inhibition of tumour volume, which was measured with caliper. Each point represents mean tumour volume calculated from 10 animals per experimental group. […] Antitumour activities were estimated by the inhibition of tumour volume, which was measured with caliper. […]

[7] = tested on: SK-OV-3 human ovary adenocarcinoma cells; experiment: SK-OV-3 ovary tumour xenograft in CD-1 nude mice, combination with taxol or cisplatin (1.8); assay type: in vivo, human cells in mice; conditions: SK-OV-3 (ovary), CD-1; SEQ ID NO:1 10 mg/kg i.v. every other day 17 times; Taxol 10 mg/kg weekly; Cisplatin 4 mg/kg weekly
Description: After 52 days the mice were sacrificed and the tumours weighed. […] Mitoxantrone was administered intravenously once at the beginning of the treatments at a dose of 2 mg/kg (FIG. 4A) or once a week for four weeks at a reduced dose of 0.8 mg/kg (FIG. 4B). All treatments were stopped at day 50 (FIG. 4A) or 48 (FIG. 4B), respectively. […] Mitoxantrone was administered intravenously once at the beginning of the treatments at a dose of 2 mg/kg (FIG. 5A) or once a week for four weeks at a reduced dose of 0.8 mg/kg (FIG. 5B). All treatments were stopped at day 42 (FIG. 5A) or 38 (FIG. 5B), respectively. […] A2058 is a metastatic melanoma cell line. […] All treatments were stopped at day 24. […] Taxol was administered intravenously once a week at a dose of 10 mg/kg for three (FIG. 7A) or four weeks (FIG. 7C). Doxorubicin was administered intravenously once a week at a dose of 5 mg/kg for first three weeks (FIG. 7A) or for two weeks (FIG. 7C). All treatments were stopped at day 33 (FIG. 7A) or at day 26 (FIG. 7C), respectively. […] In FIG. 7C, antitumour activities were estimated by the inhibition of tumour volume, which was measured with calipers. Each point represents mean tumour volume calculated from 10 animals per experimental group. […] Taxol was administered intravenously once a week for first three weeks and intraperitoneally once a week for next two weeks at a dose of 10 mg/kg. Cisplatin was administered intravenously once a week for first three weeks and intraperitoneally once a week for next two weeks at a dose of 4 mg/kg. All treatments were stopped at day 40. Antitumour activities were estimated by the inhibition of tumour volume, which was measured with caliper. Each point represents mean tumour volume calculated from 9 animals per experimental group.

Compound	Lung nodule formation / anti-metastatic activity (FIG. 31) [1]	Survival of mice ([2]; SCID mice (Example 7, FIG. 30), from day 40 every 3 days)	Survival of mice ([2]; SCID mice, stopped at day 42, sacrificed day 73, untreated all died within 23 days)	Tumour weight as % of saline control ([3]; MDA-CDDP-S4 (breast), Cisplatin resistant, SCID, SEQ ID NO:1 10 mg/kg i.v. every other day 9 times, Taxol 10 mg/kg, Cisplatin 4 mg/kg i.v. weekly x3) [%]	Antitumour effect (FIG. 11) ([3]; MDA-CDDP-S4 Cisplatin-resistant, SCID mice, SEQ ID NO:1 10 mg/kg i.v. every other day, Cisplatin 4 mg/kg, Taxol 10 mg/kg i.v. weekly)	Tumour weight as % of saline control [4] [%]	Tumour weight as % of saline control [5] [%]	Tumour weight as % of saline control [6] [%]	tumour volume data as percentage of saline control [7] [%]
5′-GGCTAAACTCGTCCACCAAG-3′ (listed as DNA, chemistry not given here) [SEQ ID NO:2, reference compound]	no anti-metastatic activity	neither SEQ ID NO:3 nor SEQ ID NO:2 control ODNs prolonged survival	no observed efficacy						
N.N.[Cl][Pt][Cl] [Cisplatin, reference compound]				78	ineffective against Cisplatin-resistant tumour	69	63	56	67
